Reference: PubChem BioAssay (NCI)
Where “and” joins values, the source holds several entries; their conditions need not be identical. Identical values can stand only once.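 Dose response: 5 concentrations. Exposure: 48 h. Format: 96-well plates. Endpoint: linear interpolation; highest concentration if not reached. GI50 is the concentration that inhibits growth by half. Definition used: TGI = concentration required for complete inhibition of growth.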

Assays:
Experiment in all cases: NCI-60 cell line screen, 48 h
HT29 colon = tested on: HT29 colon
LOX IMVI melanoma = tested on: LOX IMVI melanoma
CCRF-CEM leukemia = tested on: CCRF-CEM leukemia
MALME-3M melanoma = tested on: MALME-3M melanoma
RXF 393 renal = tested on: RXF 393 renal
SN12C renal = tested on: SN12C renal
HCT-116 colon = tested on: HCT-116 colon
NCI-H522 lung = tested on: NCI-H522 lung
OVCAR-8 ovarian = tested on: OVCAR-8 ovarian
786-0 renal = tested on: 786-0 renal
SNB-75 CNS = tested on: SNB-75 CNS
KM12 colon = tested on: KM12 colon
K-562 leukemia = tested on: K-562 leukemia
TK-10 renal = tested on: TK-10 renal
UACC-257 melanoma = tested on: UACC-257 melanoma
ACHN renal = tested on: ACHN renal
SR leukemia = tested on: SR leukemia
SF-539 CNS = tested on: SF-539 CNS
OVCAR-4 ovarian = tested on: OVCAR-4 ovarian
IGROV1 ovarian = tested on: IGROV1 ovarian
EKVX NSCLC = tested on: EKVX NSCLC
NCI-H226 lung = tested on: NCI-H226 lung
SF-295 CNS = tested on: SF-295 CNS
CAKI-1 renal = tested on: CAKI-1 renal
A549 NSCLC = tested on: A549 NSCLC
MOLT-4 leukemia = tested on: MOLT-4 leukemia
HS 578T breast = tested on: HS 578T breast
OVCAR-3 ovarian = tested on: OVCAR-3 ovarian
UO-31 renal = tested on: UO-31 renal
U251 CNS = tested on: U251 CNS
RPMI-8226 leukemia = tested on: RPMI-8226 leukemia
DU-145 prostate = tested on: DU-145 prostate
NCI-H460 lung = tested on: NCI-H460 lung
HOP-62 NSCLC = tested on: HOP-62 NSCLC
SNB-19 CNS = tested on: SNB-19 CNS
COLO 205 colon = tested on: COLO 205 colon
SK-MEL-5 melanoma = tested on: SK-MEL-5 melanoma
A498 renal = tested on: A498 renal
M14 melanoma = tested on: M14 melanoma
HCT-15 colon = tested on: HCT-15 colon
SK-MEL-2 melanoma = tested on: SK-MEL-2 melanoma
MCF7 breast = tested on: MCF7 breast
T-47D breast = tested on: T-47D breast
MDA-MB-231 breast = tested on: MDA-MB-231 breast
NCI/ADR-RES ovarian = tested on: NCI/ADR-RES ovarian
NCI-H23 lung = tested on: NCI-H23 lung
PC-3 prostate = tested on: PC-3 prostate
SW-620 colon = tested on: SW-620 colon
BT-549 breast = tested on: BT-549 breast
HL-60(TB) leukemia = tested on: HL-60(TB) leukemia
OVCAR-5 ovarian = tested on: OVCAR-5 ovarian
HOP-92 NSCLC = tested on: HOP-92 NSCLC
SK-MEL-28 melanoma = tested on: SK-MEL-28 melanoma
SK-OV-3 ovarian = tested on: SK-OV-3 ovarian
SF-268 CNS = tested on: SF-268 CNS
UACC-62 melanoma = tested on: UACC-62 melanoma
MDA-MB-435 = tested on: MDA-MB-435
HCC-2998 colon = tested on: HCC-2998 colon

In the case of COc1cc2nccc(Oc3ccc(NC(=O)C4(C(=O)Nc5ccc(F)cc5)CC4)cc3)c2cc1OC, the GI50 (HT29 colon) is reported as 7.71 µM and 2.74 µM, the TGI (HT29 colon) is reported as > 10 µM and 20.4 µM and the GI50 (LOX IMVI melanoma) is reported as 6.11 µM and 2.61 µM. The TGI (LOX IMVI melanoma) was > 10 µM and 15.2 µM, the GI50 (CCRF-CEM leukemia) was > 10 µM and 3.65 µM and the TGI (CCRF-CEM leukemia) was > 100 µM. The GI50 (MALME-3M melanoma) was > 10000 nM and 2110 nM, the TGI (MALME-3M melanoma) was > 10 µM and 9.17 µM and the GI50 (RXF 393 renal) was > 10000 nM and 2170 nM. For the same molecule, the TGI (RXF 393 renal) was > 10 µM and 6.93 µM, the GI50 (SN12C renal) was 3970 nM and 1020 nM and the TGI (SN12C renal) was > 54.2 µM. For the same molecule, the GI50 (HCT-116 colon) was > 10 µM and 3.73 µM, the TGI (HCT-116 colon) was > 41.5 µM and the GI50 (NCI-H522 lung) was > 10 µM and 4.28 µM. For the same molecule, the TGI (NCI-H522 lung) was > 45.3 µM, the GI50 (OVCAR-8 ovarian) was > 10 µM and 5.74 µM and the TGI (OVCAR-8 ovarian) was > 100 µM. The GI50 (786-0 renal) was > 10 µM and 5.52 µM, the TGI (786-0 renal) was > 54.9 µM and the GI50 (SNB-75 CNS) was 270 nM. For the same molecule, the TGI (SNB-75 CNS) was 8.14 µM, the GI50 (KM12 colon) was 333 nM and 48.2 nM and the TGI (KM12 colon) was > 100 µM. For the same molecule, the GI50 (K-562 leukemia) was 2150 nM and 281 nM, the TGI (K-562 leukemia) was > 10000 nM and 2820 nM and the GI50 (TK-10 renal) was > 10 µM and 3.76 µM. For the same molecule, the TGI (TK-10 renal) was > 10 µM and 39.5 µM, the GI50 (UACC-257 melanoma) was > 10 µM and 4.92 µM and the TGI (UACC-257 melanoma) was > 74.7 µM. The GI50 (ACHN renal) was > 10 µM and 3.88 µM, the TGI (ACHN renal) was > 10 µM and 46.3 µM and the GI50 (SR leukemia) was > 10000 nM and 2210 nM. The TGI (SR leukemia) was > 23.7 µM, the GI50 (SF-539 CNS) was 1130 nM and 1420 nM and the TGI (SF-539 CNS) was > 10 µM and 12.2 µM. For the same molecule, the GI50 (OVCAR-4 ovarian) was > 10 µM and 3.79 µM, the TGI (OVCAR-4 ovarian) was > 62.6 µM and the GI50 (IGROV1 ovarian) was 4.51 µM and 2.59 µM. For the same molecule, the TGI (IGROV1 ovarian) was > 31 µM, the GI50 (EKVX NSCLC) was > 10 µM and 6.98 µM and the TGI (EKVX NSCLC) was > 10 µM and 97.3 µM. The GI50 (NCI-H226 lung) was 2290 nM and 1700 nM, the TGI (NCI-H226 lung) was > 10 µM and 5.52 µM and the GI50 (SF-295 CNS) was 406 nM and 289 nM. The TGI (SF-295 CNS) was > 10 µM and 4.95 µM, the GI50 (CAKI-1 renal) was 5.87 µM and 3.61 µM and the TGI (CAKI-1 renal) was > 10 µM and 40.9 µM. For the same molecule, the GI50 (A549 NSCLC) was > 10 µM and 3.55 µM, the TGI (A549 NSCLC) was > 61.4 µM and the GI50 (MOLT-4 leukemia) was > 10 µM and 3.44 µM. The TGI (MOLT-4 leukemia) was > 59.1 µM, the GI50 (HS 578T breast) was 450 nM and 857 nM and the TGI (HS 578T breast) was > 10 µM and 10.8 µM. The GI50 (OVCAR-3 ovarian) was > 10 µM and 6.03 µM, the TGI (OVCAR-3 ovarian) was > 10 µM and 54 µM and the GI50 (UO-31 renal) was 4.3 µM and 2.33 µM. For the same molecule, the TGI (UO-31 renal) was > 10 µM and 12.7 µM, the GI50 (U251 CNS) was > 10 µM and 4.31 µM and the TGI (U251 CNS) was > 100 µM. For the same molecule, the GI50 (RPMI-8226 leukemia) was > 10 µM and 4.09 µM, the TGI (RPMI-8226 leukemia) was > 57.7 µM and the GI50 (DU-145 prostate) was > 10 µM and 5.47 µM. For the same molecule, the TGI (DU-145 prostate) was > 100 µM, the GI50 (NCI-H460 lung) was > 10 µM and 3.27 µM and the TGI (NCI-H460 lung) was > 94.6 µM. For the same molecule, the GI50 (HOP-62 NSCLC) was > 10 µM and 5.6 µM, the TGI (HOP-62 NSCLC) was > 45.3 µM and the GI50 (SNB-19 CNS) was > 10 µM and 7.69 µM. For the same molecule, the TGI (SNB-19 CNS) was > 100 µM, the GI50 (COLO 205 colon) was 6 µM and 2.1 µM and the TGI (COLO 205 colon) was > 10 µM and 4.63 µM. For the same molecule, the GI50 (SK-MEL-5 melanoma) was > 10 µM and 4.66 µM, the TGI (SK-MEL-5 melanoma) was > 100 µM and the GI50 (A498 renal) was 1200 nM and 429 nM. For the same molecule, the TGI (A498 renal) was > 10 µM and 3.43 µM, the GI50 (M14 melanoma) was > 10000 nM and 2900 nM and the TGI (M14 melanoma) was > 10 µM and 18.3 µM. The GI50 (HCT-15 colon) was > 10 µM and 3.94 µM, the TGI (HCT-15 colon) was > 100 µM and the GI50 (SK-MEL-2 melanoma) was > 10 µM and 7.13 µM. The TGI (SK-MEL-2 melanoma) was > 10 µM and 27.9 µM, the GI50 (MCF7 breast) was > 10 µM and 4.06 µM and the TGI (MCF7 breast) was > 54.2 µM. The GI50 (T-47D breast) was > 10 µM and 4.36 µM, the TGI (T-47D breast) was > 100 µM and the GI50 (MDA-MB-231 breast) was > 10 µM and 3.1 µM. For the same molecule, the TGI (MDA-MB-231 breast) was > 40.6 µM, the GI50 (NCI/ADR-RES ovarian) was > 10 µM and 3.43 µM and the TGI (NCI/ADR-RES ovarian) was > 100 µM. The GI50 (NCI-H23 lung) was > 10000 nM and 2830 nM, the TGI (NCI-H23 lung) was > 100 µM and the GI50 (PC-3 prostate) was > 10 µM and 3.42 µM. The TGI (PC-3 prostate) was > 100 µM, the GI50 (SW-620 colon) was 9.09 µM and 2.38 µM and the TGI (SW-620 colon) was > 34.5 µM. The GI50 (BT-549 breast) was > 10 µM and 8.8 µM, the TGI (BT-549 breast) was > 10 µM and 72.4 µM and the GI50 (HL-60(TB) leukemia) was > 10 µM and 3.87 µM. The TGI (HL-60(TB) leukemia) was > 10 µM and 21.6 µM, the GI50 (OVCAR-5 ovarian) was > 10 µM and 3.5 µM and the TGI (OVCAR-5 ovarian) was > 58.3 µM. The TGI (HOP-92 NSCLC) was 8.01 µM and 1.46 µM, the GI50 (SK-MEL-28 melanoma) was > 10 µM and 3.74 µM and the TGI (SK-MEL-28 melanoma) was > 79 µM. For the same molecule, the GI50 (SK-OV-3 ovarian) was > 10 µM and 5.83 µM, the TGI (SK-OV-3 ovarian) was > 10 µM and 42.3 µM and the GI50 (SF-268 CNS) was > 10 µM and 4.54 µM. The TGI (SF-268 CNS) was > 100 µM, the GI50 (UACC-62 melanoma) was 4.74 µM and 1.97 µM and the TGI (UACC-62 melanoma) was > 10 µM and 32.3 µM. For the same molecule, the GI50 (MDA-MB-435) was 7.54 µM and 2.67 µM, the TGI (MDA-MB-435) was > 10 µM and 21.2 µM and the GI50 (HCC-2998 colon) was > 10 µM and 6.29 µM. The TGI (HCC-2998 colon) was > 100 µM.
